From patent publication US12054509B2, “Antimicrobial compounds, compositions, and uses thereof” (Lakewood Amedex, Inc., priority 2017, dated 2024)

Assays:
pKa measurement = assay type: physicochemical
P. aeruginosa = test: MIC broth microdilution (CLSI) at incremental pH, P. aeruginosa; assay type: cell-based; details: Pseudomonas aeruginosa
Procedure: MIC testing is conducted using the broth (Mueller Hinton Broth) microdilution procedures relevant to each organism group as established by the Clinical and Laboratory Standards Institute (CLSI; 3-7). MIC plates are prepared in accordance with CLSI (3-7). To prepare the test plates, automated liquid handlers are used to conduct serial dilutions and liquid transfers. Automated liquid handlers utilized in this study include the Multidrop 384 (Labsystems, Helsinki, Finland) and the Biomek 2000 (Beckman Coulter, Fullerton CA). The solution is diluted to desired pH using 1 M Citric Acid or 1 M NaOH buffer. A standardized inoculum of each test organism is prepared per CLSI methods (3, 5-7) to equal a 0.5 McFarland standard in the appropriate media followed by an additional 1:20 dilution (1:10 for anaerobes).
The plates are then inoculated with 10 μL of the diluted 0.5 McFarland suspension using the Biomek 2000 from low to high drug concentration, resulting in a final concentration of approximately 5×10^5 CFU/mL per well. An un-inoculated plate is incubated for the purpose of assessing solubility of the drug in the test media. The plates are stacked 3 to 4 high, covered with a sterile lid on the top plate, and incubated for 18 to 24 hours according to CLSI. The MIC is recorded as the lowest concentration of respective compound that inhibited visible growth of the organism.

bacterial strains = test: MIC at pH 3.5 in human and mouse urine; assay type: cell-based
Text: Bacterial strains evaluated in this study include Escherichia coli, Klebsiella spp, Serratia marcescens, Proteus mirabilis/vulgaris, Citrobacter spp, Providencia spp, Morganella morganii, Pseudomonas aeruginosa, Staphylococcus aureus (MRSA only), and Enterococcus faecalis. […]

[1] = test system: E. coli ATCC 25922 or P. aeruginosa K2732; test: Bacterial cytological profiling (Example 6), cell viability, strain not stated; assay type: cell-based; details: within minutes, from initial 10^9 CFU/mL
Procedure: (§1) This bacterial cytological profiling (BCP) study uses methods and materials described previously by Nonejuie, P., Burkart, M., Poglianoa, K., Pogiano, J. (2013). Bacterial cytological profiling rapidly identifies the cellular pathways targeted by antibacterial molecules. Proc. Natl. Acad. Sci. U.S.A. 110(40):16169-16174. doi: 10.1073/pnas.1311066110.
Wild type strains of E. coli ATCC 25922 or P. aeruginosa K2732 are grown in rich media (unbuffered 2× Lysogeny broth [LB]) at 30 C to an OD600˜0.4. These cultures are then split and each sample treated with the appropriate concentration of Nu-8 in unbuffered or buffered LB (final mixture OD600˜0.1). Cells exposed without Nu-8 are buffered to pH 4 with phosphoric acid.
The BCP is performed in LB media buffered to pH 4. The minimum inhibitory concentration (MIC) is measured for Nu-3, Nu-4, Nu-5, and Nu-8 against each bacterial strain. As one of ordinary skill in the art understands, minimum inhibitory concentrations are the lowest concentration of an antimicrobial that will inhibit the visible growth of a microorganism after overnight incubation. […] Cellular viability is assayed at three time points (5 minutes and 4 and 24 h following the onset of treatment).

[2] = test system: methicillin susceptible S. aureus (ATCC 29213); test: Bacterial cytological profiling at pH 4, 5.5, 7 (Example 8), S. aureus; assay type: cell-based; details: for cell permeability / cell viability: pH 4
Procedure: as §1, with “investigation” for “study”
(§2) For viable cell counts, cells are grown to OD600≈0.4 and diluted 1:1 into buffered or unbuffered media containing various compound concentrations. Samples are then collected and serially diluted (1:10) on a 96 well plate. Five microliters from each well are spotted on LB plates, incubated at 30° C., and viable cells are counted the next day.
(§3) Samples are collected at 10, 30, 120, and 240 min of exposure for viable cell count and imaging. For imaging, E. coli and S. aureus 200 μL of treated cells per time point are stained with 0.8 μg/mL FM4-64, 1.5 μg/mL DAPI, and 0.4 μM SYTOXGreen (Molecular Probes/Invitrogen). P. aeruginosa samples are stained 0.4 μM SYTOX Green, 28 μg/mL DAN, and 1 μg/mL FM 4-64. Cells are transferred to an agarose pad (20% LB, 1% agarose) for imaging.
(§4) For Nu-3 and Nu-8 stocks (at pH 4, 5.5 and 7), stock concentration is 500 mg/mL. For pH 4, the stocks are prepared by dissolving Nu-3 in 25 mM citrate buffer and Nu-8 in 350 mM citric acid. For pH 5.5, the stocks are prepared by dissolving Nu-3 in 25 mM citric-phosphate and Nu-8 in 25 mM critic. For pH 7, the stocks are prepared by dissolving Nu-3 and Nu-8 in 25 mM Sorensen phosphate buffer. 2×LB (lysogeny broth) solutions are prepared with 50 mM citrate buffer for pH 4, 50 mM citrate-phosphate buffer for pH 5.5, and 50 mM Sorensen phosphate buffer for pH 7.

Enterococcus faecalis = test: MIC at pH 3.5 (CLSI, Mueller-Hinton broth); assay type: cell-based; details: 5 isolates
Procedure: (§5) Bacterial strains evaluated in this study include Escherichia coli, Klebsiella spp, Serratia marcescens, Proteus mirabilis/vulgaris, Citrobacter spp, Providencia spp, Morganella morganii, Pseudomonas aeruginosa, Staphylococcus aureus (MRSA only), and Enterococcus faecalis. Nu-8 test solutions are adjusted to pH 3.5 with citric acid, and MIC is evaluated per the CLSI methods in Mueller-Hinton broth supplemented accordingly to facilitate growth of specific strains.

Klebsiella pneumoniae = test: MIC at pH 3.5 (CLSI, Mueller-Hinton broth); assay type: cell-based; details: 5 isolates
Procedure: as §5

Morganella morganii = test: MIC at pH 3.5 (CLSI, Mueller-Hinton broth); assay type: cell-based; details: 5 isolates
Procedure: as §5

Serratia marcescens = test: MIC at pH 3.5 (CLSI, Mueller-Hinton broth); assay type: cell-based; details: 5 isolates
Procedure: as §5

Citrobacter species = test: MIC at pH 3.5 (CLSI, Mueller-Hinton broth); assay type: cell-based; details: 5 isolates
Procedure: as §5

Providencia species = test: MIC at pH 3.5 (CLSI, Mueller-Hinton broth); assay type: cell-based; details: 5 isolates
Procedure: as §5

Pseudomonas aeruginosa = test: MIC at pH 3.5 (CLSI, Mueller-Hinton broth); assay type: cell-based; details: 20 isolates
Procedure: as §5

Solubility = assay type: physicochemical; details: unit inferred
[3] = test system: wild type E. coli (ATCC 25922); test: Bacterial cytological profiling at pH 4, 5.5, 7 (Example 8), E. coli; assay type: cell-based; details: pH 5.5 and 7
Procedure: as §1, with “investigation” for “study”
as §2, §3, §4

Work on `CCCCOP(=O)(O)OC[C@H]1O[C@@H](n2ccc(N)nc2=O)C[C@@H]1OP(=O)(O)OCCCC` [Nu-8, sodium ((2R,3S,5R)-5-(4-amino-2-oxopyrimidin-1(2H)-yl)-3-((butoxyoxidophosphor-yl)oxy)tetrahydrofuran-2-yl)methyl butyl phosphate] yielded a pKa (pKa measurement) of 3.2, an MIC (P. aeruginosa; pH 1) of 9.38 mg/mL and an MIC (P. aeruginosa; pH 3) of 18.8 mg/mL. For the same compound, the MIC (P. aeruginosa; pH 4) was 37.5 mg/mL, the MIC (P. aeruginosa; pH 5) was 75 mg/mL and the MIC (P. aeruginosa; pH 7) was > 75 mg/mL. The “MICs in human and mouse urine” value (bacterial strains) was “comparable to those of Nu-8 in Mueller Hinton broth”, the cell viability [1] was < 10^2 CFU/mL and the cell permeability ([2]; 125 mg/mL) was < 4.3%. For the same compound, the cell viability ([2]; 125 mg/mL, by 240 min, from 10^7.5 CFU/mL at study start) was 10^3 CFU/mL, the cell permeability ([2]; 250 mg/mL) was ~60% and the cell viability ([2]; 250 mg/mL, within 10 min) was ~10^4 CFU/mL. For the same compound, the cell growth ([2]; pH 5.5 and 7, 125 mg/mL and 250 mg/mL, up to 24 h) was “slightly reduce cell growth”, the MIC (Enterococcus faecalis) was 4.69 to 18.8 mg/mL and the MIC (Klebsiella pneumoniae) was 37.5 to 75 mg/mL. The MIC (Morganella morganii) was 18.8 mg/mL, the MIC (Serratia marcescens) was 37.5 to 75 mg/mL and the MIC (Citrobacter species) was 18.8 to 37.5 mg/mL. For the same compound, the MIC (Providencia species) was 9.38 to 37.5 mg/mL, the MIC (Pseudomonas aeruginosa) was 9.38 to 18.8 mg/mL and the MIC50 (Pseudomonas aeruginosa) was 18.8 mg/mL. For the same compound, the MIC90 (Pseudomonas aeruginosa) was 18.8 mg/mL, the solubility (Solubility) was 137 mg/mL and the “effect on cell permeability, viability and growth” value [3] was “alters E. coli cell permeability and reduces cell viability and growth”.
